Source: patent publication US20080280974A1, “Spiro compounds for treatment of inflammatory disorders” (priority 2007, published 2008)

Assays:
[1] = test system: Balb/CJ mice, ovalbumin-sensitized and challenged; assay: Mouse model of asthma: methacholine-induced airway reactivity (Penh) in ovalbumin-sensitized mice; assay type: in vivo; conditions: po, 768 h, 50 mg/kg p.o., days 26-32, % inhibition of the PenH vs McH dose AUC compared with vehicle control, day 32, read-out: Reduction of Penh AUC at 50 mg/kg p.o.
Procedure: Protocol for Testing Compounds in a Mouse Model of Asthma
Male 5-6 week old Balb/CJ mice were obtained from Jackson Laboratories (Bar Harbor, Me.). All experimental animals were used in accordance to Institutional Animal Care and Use Committee of AtheroGenics, Inc. Mice were sensitized by administering an intraperitoneal injection of 20 μg of ovalbumin (Calbiochem, La Jolla, Calif.) adsorbed in 2 mg of alum (Imject Alum; Pierce, Rockford, Ill.) on day 0 and 14. A group of mice received saline and served as negative control animals. The mice were challenged by aerosol exposure to ovalbumin (1% [wt/vol]) for 25 minutes on 3 consecutive days (days 28, 29, and 30) in a plexiglas exposure chamber coupled to an Aeroneb nebulizer (Buxco Electronics, Wilmington, N.C.). Experimental compounds were dissolved in Glycofurol/PEG 300/Tween (35%/55%/10%) (Sigma-aldrich; Milwaukee, Wis.). Animals were dosed orally with either test compound or vehicle (6 ml/kg dosing volume) on days 26-32 of study. Compound or vehicle was administered 2 hour before the aerosol challenge on days 28, 29, and 30 and 1 hour before airway reactivity measurement on day 32.
Methacholine-induced airway reactivity was assessed on day 32. Methacholine was administered in increasing concentrations ([…], 1.5, 3, 6, 12, 25, and 50 mg/ml) to unrestrained mice. Increases in airway resistance to Methacholine were determined as enhanced pause, (Penh) values, during and after the exposure (6-minute total analysis time). Mice were then humanely euthanized with an overdose of ketamine/xylazine and plasma samples collected for determination of drug levels. The data is presented as the % inhibition of the PenH vs McH dose AUC compared with the vehicle control.
Data analysis was conducting using the software package, JMP (SAS Institute Inc; Cary, N.C.). The Dunnett's multiple comparison test was used to compare treatment group means to the vehicle control group. P values of less than 0.05 were considered statistically significant. The data (Table 1) are presented as the % inhibition of the PenH vs McH dose AUC compared with the vehicle control.

[2] = test system: IL-8 secreted by human pulmonary artery endothelial cells (HPAEC); assay: In vitro IL-8 assay: TNF-alpha-stimulated IL-8 secretion by HPAEC, ELISA; assay type: cell-based; conditions: Endothelial cell, 10 microM compound, 20 hrs preincubation, then 2 ng/ml TNF-alpha for 4 hrs
Procedure: (§1) In Vitro IL-6 and IL-8 Assays
(§2) Compounds at dosing concentrations (with 0.2% DMSO vehicle) were incubated in EGM2MV cell media at 37° C. for overnight, added to 96-well plates seeded with confluent human pulmonary artery endothelial cells (HPAEC) for 20 hrs at 37° C., and then replaced with fresh dosing media containing 2 ng/ml tumor necrosis factor alpha for additional 4 hrs at 37° C. Afterwards, media was removed and used in ELISA assay to quantify the amount of IL-6 and IL-8 secreted by the cells using R&D Systems Duoset ELISA kits.

[3] = test system: IL-6 secreted by human pulmonary artery endothelial cells (HPAEC); assay: In vitro IL-6 assay: TNF-alpha-stimulated IL-6 secretion by HPAEC, ELISA; assay type: cell-based; conditions: Endothelial cell, 10 microM compound, 20 hrs preincubation, then 2 ng/ml TNF-alpha for 4 hrs
Procedure: as §1, §2

SMILES | inhibition in vivo at 50 mg/kg [1] [%] | inhibition at 10 µM [2] [%] | inhibition at 10 µM [3] [%] | melting point [°C]
Cc1cc2c(cc1O)C(C)(C)CC1(CC(C)(C)c3cc(OCC(=O)O)c(C)cc3O1)O2 (racemic) [Example 7, (±)-6′-(Hydroxy-4,4,4′,4′,7,7′-hexamethyl-2,2′-spirobichroman-6-yloxy)-acetic acid] | > 40 | 0 | 12 | 227 to 229
Cc1cc2c(cc1O)C(C)(C)CC1(CC(C)(C)c3cc(OCCCC(=O)O)c(C)cc3O1)O2 (racemic) [Example 12, 4-[(±)-(6′-Hydroxy-4,4,4′,4′,7,7′-hexamethyl-2,2′-spirobichroman-6-yloxy)-]butyric acid] | < 20 | 0 | 0 | 173 to 174
Cc1cc2c(cc1OCC(=O)O)C(C)(C)CC1(CC(C)(C)c3cc(OCC(=O)O)c(C)cc3O1)O2 (racemic) [Example 21, (±)-[(4,4,4′,4′,7,7′-Hexamethyl-2,2′-spirobichroman-6,6′-diyl)bis(oxy)]-bis-acetic acid] | 20 to 40 | 19 | 25 | > 260
